For orientation: ED50 means the midpoint of the dose-response relation.

Data on two molecules can be found in patent US4420488A, “Quaternary 1,1-diphenyl-4-pyrrolidinium-2-butyne salts, a process for their production and medicaments containing these compounds” (Ludwig Heumann & Co. GmbH, priority 1980, dated 1983).

Where two headings read alike, the source gives them in different places.

In data set [1] the target is T1, Mee-ileum (Cavia porcellus).
T1 construct: in vitro (Mee-ileum); from tissue; host or cells: isolated ileum ('Mee-ileum', read as guinea pig ileum)
T1 sequence (H0W1Z3 1-590): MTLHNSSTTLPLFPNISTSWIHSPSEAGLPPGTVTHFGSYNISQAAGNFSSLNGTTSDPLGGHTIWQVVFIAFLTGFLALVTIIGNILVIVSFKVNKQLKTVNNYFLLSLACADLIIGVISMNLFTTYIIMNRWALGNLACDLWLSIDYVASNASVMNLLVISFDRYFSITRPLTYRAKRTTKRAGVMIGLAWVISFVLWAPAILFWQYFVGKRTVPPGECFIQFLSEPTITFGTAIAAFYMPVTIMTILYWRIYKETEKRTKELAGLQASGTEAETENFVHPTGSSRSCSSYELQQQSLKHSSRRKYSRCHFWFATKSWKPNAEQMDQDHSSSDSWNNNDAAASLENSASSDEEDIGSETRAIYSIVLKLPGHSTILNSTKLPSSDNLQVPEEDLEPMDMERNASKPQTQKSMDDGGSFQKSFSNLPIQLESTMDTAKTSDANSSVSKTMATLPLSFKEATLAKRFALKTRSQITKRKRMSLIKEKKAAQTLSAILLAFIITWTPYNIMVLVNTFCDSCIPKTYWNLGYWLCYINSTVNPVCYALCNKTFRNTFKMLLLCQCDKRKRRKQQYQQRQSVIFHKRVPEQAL
The data set is described as follows: Spasmolytic effect in vitro (Mee-ileum) (Van Rossum). Particulars: ACH, read-out: Spasmolytic effect in vitro pA2 (ACH) (converted). The source says:
(§1) The following Table summarizes the results of pharmacological studies conducted with the compound according to the invention, 1,1-diphenyl-4-pyrrolidinyl-2-butyne-1-ol-N-methyl ammonium bromide, and with butynoline phosphate as the comparison substance.
8.0 8.2 Arch. Int. Pharmaco-

The nature of data set [2]: Inhibition of the carbachol-induced secretion of saliva (rat), cholinolytic side effects (mod. Brown, Quinton). Particulars: in vivo, po, i.g.
Description: (§2) As already mentioned, the compounds according to the invention show better pharmacological properties than the known butynoline phosphate, particularly in regard to the broncholytic and anti-ulcerogenic effect obtainable therewith. Tests relating to inhibition of the carbachol-induced secretion of saliva and mydriasis have shown that the compounds according to the invention have fewer side effects than the known butynoline phosphate.
as §1
i.g. i.g. Brown, D. M., Quinton,
24 9.8 R. M., Brit. J. Pharma-

Another data set deals with stress ulcer. Kind of data set: Anti-ulcerogenic effect, stress ulcer (Takagi, Okabe). It counts as in vivo. Particulars: po, i.g.
Description: as §1
effect i.g. i.g. Jap. J. Pharmac. 18,

The test system of data set [3] is carbachol-induced gastric secretion. The data set is described as follows: Inhibition of the carbachol-induced gastric secretion (Heidenhain cat) (Engler, Fritschi). It counts as in vivo. The settings on record: Felis catus, po, i.g.
Description: as §1
0.3 0.3 Schmiedeberg's Arch.
(Heidenhain cat) Pharmacol. 297,

Data set [4] in a line: Mydriasis, cholinolytic side effects (Pulewka). Particulars: in vivo, po, i.g.
Description: as §2, §1
i.g. i.g. exp. Pharmacol.

A further data set has as its system ACH. Kind of data set: Broncholysis (guinea pig), ACH (Konzett, Rossler). It is filed as in vivo. The settings on record: Cavia porcellus, iv.
Description: as §1
(§3) ACH 30 ACH 60 Rossler, R.,
(§4) Hi 500 Hi 1000 Arch. exp. Pharmacol.

The conditions of data set [5]: in words; cited from earlier work.
Another data set has as its system Hi. The data set is described as follows: Broncholysis (guinea pig), Hi (Konzett, Rossler). It counts as in vivo. The settings on record: Cavia porcellus, iv.
Description: as §1, §3, §4

As for `OC(C#CCN1CCCC1)(c1ccccc1)c1ccccc1` [Butynoline phosphate, phosphate of 1,1-diphenyl-4-pyrrolidino-2-butyne-1-ol], the Kb in data set [1] was 6.31 nM. Further, the ED50 came out at 9.8 mg/kg in data set [2]; 150 mg/kg in the data set on stress ulcer; 0.3 mg/kg in data set [3] (butynoline phosphate column, read-out: Inhibition of the carbachol-induced gastric secretion ED50 (ACH)); 16 mg/kg in data set [4]; 0.06 mg/kg in the data set on ACH; 1 mg/kg with Hi. In addition, the “pharmacological activity (known)” value in data set [5] is “anti-cholinergic spasmolytic and anti-ulcerogenic activity”.
In the case of `C[N+]1(CC#CC(O)(c2ccccc2)c2ccccc2)CCCC1` [1,1-diphenyl-4-pyrrolidinyl-2-butyne-1-ol-N-methyl ammonium bromide], the Kb in data set [1] was 10 nM. The 50% effective dose (ED50) in data set [2] was 24 mg/kg; in the data set with stress ulcer, 25 mg/kg; in data set [3] (read-out: Inhibition of the carbachol-induced gastric secretion ED50), 0.3 mg/kg; in data set [4], 128 mg/kg; in the data set on ACH, 0.03 mg/kg; in the data set on Hi, 0.5 mg/kg.
